Measurements reported in ChEMBL document CHEMBL1201862, “PubChem BioAssay data set” (2004).
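Five compound concentrations were applied to cells in 96-well plates for 48 hours; endpoints were derived by simple linear interpolation of the resulting dose-response curve. GI50 marks 50% less growth.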 Calls of active or inactive are those of the source. No stated cut-off is given here; in the data, active = GI50 up to about 1.1 µM and inactive = higher.

Columns and labels:
Assay in all cases: DTP human tumour cell line panel, 48 h
786-0 = test system: 786-0
A498 = test system: A498
ACHN = test system: ACHN
BT-549 = test system: BT-549
HT-29 = test system: HT-29
K562 = test system: K562
MCF7 = test system: MCF7
MDA-MB-435 = test system: MDA-MB-435
MDA-N = test system: MDA-N
NCI-H23 = test system: NCI-H23
NCI-H460 = test system: NCI-H460
OVCAR-5 = test system: OVCAR-5
SF-295 = test system: SF-295
SK-MEL-2 = test system: SK-MEL-2
SNB-75 = test system: SNB-75
SR = test system: SR
T47D = test system: T47D
TK-10 = test system: TK-10
UACC-257 = test system: UACC-257
LOX IMVI = test system: LOX IMVI

Measured: GI50

Cc1nc2c(=O)n(C)ncc2[nH]1
inactive: 786-0 > 100 µM | A498 > 100 µM | ACHN > 100 µM | BT-549 > 100 µM | HT-29 > 100 µM | K562 > 100 µM | MCF7 > 100 µM | MDA-MB-435 > 100 µM | MDA-N > 100 µM | NCI-H23 > 100 µM | NCI-H460 > 100 µM | OVCAR-5 > 100 µM | SF-295 > 100 µM | SK-MEL-2 > 100 µM | SNB-75 22.6 µM | SR > 100 µM | T47D > 100 µM | TK-10 > 100 µM | UACC-257 > 100 µM

CC(C)CN1CN(c2ccccc2)C2(CCN(CC(C)(c3ccc(F)cc3)C3OCCO3)CC2)C1=O (stereo not drawn)
inactive: 786-0 3.12 µM | ACHN 4.16 µM | BT-549 6.56 µM | HT-29 1.73 µM | K562 3.08 µM | LOX IMVI 2.08 µM | MCF7 4.11 µM | MDA-MB-435 6.62 µM | MDA-N 6.84 µM | NCI-H23 2.09 µM | OVCAR-5 13 µM | SF-295 3.87 µM | SK-MEL-2 2.89 µM | SNB-75 7.33 µM | SR 2.77 µM | T47D 2.75 µM | TK-10 10.8 µM | UACC-257 3.04 µM

Cc1c2ccccc2c(C)n2c1nc1cc3ccccc3cc12
active: 786-0 0.955 µM | ACHN 0.783 µM | HT-29 0.647 µM | MCF7 0.321 µM | NCI-H460 1.05 µM | OVCAR-5 1.02 µM | SF-295 1.06 µM | SR 0.721 µM
inactive: BT-549 1.84 µM | K562 2.91 µM | MDA-MB-435 1.61 µM | MDA-N 1.47 µM | NCI-H23 1.29 µM | SK-MEL-2 1.61 µM | SNB-75 1.57 µM | T47D 6.44 µM | TK-10 2.15 µM | UACC-257 3.3 µM

COC(=O)C1=C(OC(=O)c2ccccc2)C(C(=O)OC)[C@]2(O)[C@@H](C(=O)OC)[C@H]1C[C@@H](c1ccccc1)[C@@H]2C(=O)OC (stereo partly drawn)
inactive: 786-0 16.4 µM | A498 16.3 µM | ACHN 10.9 µM | BT-549 12.2 µM | HT-29 15.7 µM | K562 3.33 µM | LOX IMVI 9.31 µM | MCF7 3.01 µM | MDA-MB-435 2.45 µM | MDA-N 1.95 µM | NCI-H23 6.32 µM | NCI-H460 9.68 µM | OVCAR-5 22.9 µM | SF-295 5.82 µM | SK-MEL-2 2.81 µM | SR 8.87 µM | T47D 6.52 µM | TK-10 17.3 µM | UACC-257 5.62 µM

CCCCCC(=O)OCC(=O)[C@H]1[C@H](C)C[C@H]2[C@@H]3C[C@H](F)C4=C/C(=N/OC(=O)c5cccc6c(=O)c7ccccc7[nH]c56)C=C[C@]4(C)[C@H]3[C@@H](O)C[C@@]21C
inactive: 786-0 48.3 µM | ACHN 19.9 µM | BT-549 16.5 µM | HT-29 21.7 µM | K562 46.5 µM | LOX IMVI 17.6 µM | MCF7 21.9 µM | MDA-MB-435 23.8 µM | MDA-N 28.3 µM | NCI-H23 29.6 µM | OVCAR-5 32.8 µM | SF-295 47.8 µM | SK-MEL-2 23.1 µM | SNB-75 19.1 µM | SR 21.5 µM | T47D 19 µM | TK-10 26.2 µM | UACC-257 20 µM

CCCC(=O)n1[nH]c(=O)n(-c2ccc(Cl)cc2)c1=O
inactive: 786-0 > 100 µM | ACHN > 100 µM | BT-549 > 100 µM | HT-29 > 100 µM | K562 > 100 µM | LOX IMVI > 100 µM | MCF7 > 100 µM | MDA-MB-435 > 100 µM | MDA-N > 100 µM | NCI-H23 > 100 µM | NCI-H460 > 100 µM | OVCAR-5 > 100 µM | SF-295 > 100 µM | SK-MEL-2 > 100 µM | SNB-75 > 100 µM | SR > 100 µM | T47D > 100 µM | TK-10 > 100 µM | UACC-257 > 100 µM

CCOC(=O)CCc1cn2cc(Br)nc(OC)c2n1
inactive: 786-0 > 100 µM | BT-549 > 100 µM | HT-29 17.9 µM | K562 4.75 µM | LOX IMVI 90.2 µM | MCF7 16.2 µM | MDA-MB-435 2.82 µM | MDA-N 3.1 µM | NCI-H23 67.5 µM | NCI-H460 > 100 µM | SF-295 57.7 µM | SK-MEL-2 > 100 µM | SNB-75 26.1 µM | SR 72.6 µM | T47D 46.3 µM | TK-10 > 100 µM | UACC-257 > 100 µM

CCOC(=O)C(NC(=O)c1ccccc1)(Nc1ccc(S(=O)(=O)Nc2cc(C)on2)cc1)C(F)(F)F (stereo not drawn)
inactive: 786-0 > 100 µM | ACHN > 100 µM | BT-549 > 100 µM | HT-29 > 100 µM | K562 > 100 µM | LOX IMVI > 100 µM | MCF7 > 100 µM | MDA-MB-435 > 100 µM | MDA-N > 100 µM | NCI-H23 > 10 µM | NCI-H460 > 100 µM | OVCAR-5 > 100 µM | SF-295 > 100 µM | SK-MEL-2 > 100 µM | SNB-75 > 100 µM | SR > 100 µM | T47D > 100 µM | TK-10 56.1 µM | UACC-257 > 10 µM

CN(C)/C=C(\C(=O)c1ccccc1)n1nc(-c2ccccc2)cc1-c1ccccc1
inactive: 786-0 > 10 µM | A498 > 10 µM | ACHN > 10 µM | BT-549 > 10 µM | HT-29 > 10 µM | LOX IMVI > 10 µM | MCF7 > 10 µM | MDA-MB-435 > 10 µM | MDA-N > 10 µM | NCI-H23 > 10 µM | NCI-H460 > 10 µM | OVCAR-5 > 10 µM | SF-295 > 10 µM | SK-MEL-2 > 10 µM | SR > 10 µM | T47D > 10 µM | TK-10 > 10 µM | UACC-257 > 10 µM

COC(=O)c1c(OC(C)=O)ccc2c1c1c(OC(C)=O)c3ccccc3c(OC(C)=O)c1n2Cc1cc(OC)cc(OC)c1
inactive: 786-0 36.5 µM | A498 23.1 µM | ACHN 30.8 µM | BT-549 6.82 µM | HT-29 47.9 µM | K562 11 µM | MCF7 26.1 µM | MDA-MB-435 6.64 µM | MDA-N 5.12 µM | NCI-H23 9.91 µM | NCI-H460 3.53 µM | OVCAR-5 > 100 µM | SF-295 18.2 µM | SK-MEL-2 3.31 µM | SNB-75 7.19 µM | SR 4.44 µM | T47D 3.82 µM | TK-10 66.7 µM | UACC-257 25.7 µM

CN(c1ccccc1)S(=O)(=O)c1ccccc1[N+](=O)[O-]
inactive: 786-0 > 100 µM | ACHN > 100 µM | BT-549 75.2 µM | HT-29 39.8 µM | K562 36.3 µM | LOX IMVI > 100 µM | MCF7 > 100 µM | MDA-MB-435 71.9 µM | MDA-N > 100 µM | NCI-H23 > 100 µM | NCI-H460 77.1 µM | OVCAR-5 > 100 µM | SF-295 > 100 µM | SK-MEL-2 > 100 µM | SNB-75 96.6 µM | SR 81.3 µM | T47D 62.5 µM | TK-10 > 100 µM | UACC-257 > 100 µM
